From ChEMBL document CHEMBL1123320, “Studies in potential filaricides. 18. Synthesis of 2,2'-disubstituted 5,5'-dibenzimidazolyl ketones and related compounds as potential anthelmintics” (1986)

Key:
Cricetinae gen. sp. [1] = assay: Anthelmintic activity against Ancylostoma ceylanicum (hook worm) in hamsters at a dose of 1x 1 mg/kg administered perorally; type: functional, Cricetulus griseus; conditions: route oral
Cricetinae gen. sp. [2] = assay: Anthelmintic activity against Ancylostoma ceylanicum in hamsters at a dose 1x 1 mg/kg administered perorally; type: functional, Cricetulus griseus; conditions: route oral
Cricetinae gen. sp. [3] = assay: Anthelmintic activity against Ancylostoma ceylanicum in hamsters at a dose of 0.5x1 mg/kg administered perorally; type: functional, Cricetulus griseus
Mastomys natalensis [4] = assay: Filaricidal activity against Brugia malayi in Mastomys at a dosage of 200 mg/kg x 5 administered orally; type: functional; conditions: route oral
Mastomys natalensis [5] = assay: Filaricidal activity against Brugia malayi in Mastomys at a dosage of 50 mg/kg x 5 administered intraperitoneally; type: functional; conditions: route intraperitoneal
Mastomys natalensis [6] = assay: Filaricidal activity against Dipetalonema viteae in Mastomys at a dosage of 300 mg/kg x 5 administered orally; type: functional; conditions: route oral
Mastomys natalensis [7] = assay: Filaricidal activity against Dipetalonema viteae in Mastomys at a dosage of 6.25 mg/kg x 5 administered subcutaneous; type: functional
Mastomys natalensis [8] = assay: Filaricidal activity against Brugia malayi in Mastomys at a dosage of 200 mg/kg x 5 administered orally at a day of 42; type: functional; conditions: route oral
Mastomys natalensis [9] = assay: Filaricidal activity against Brugia malayi in Mastomys at a dosage of 200 mg/kg x 5 administered orally at a day of 63; type: functional; conditions: route oral
Mastomys natalensis [10] = assay: Filaricidal activity against Brugia malayi in Mastomys at a dosage of 200 mg/kg x 5 administered orally at a day of 8; type: functional; conditions: route oral
Mastomys natalensis [11] = assay: Filaricidal activity against Brugia malayi in Mastomys at a dosage of 200 mg/kg x 5 administered orally at a day of 91; type: functional; conditions: route oral
Mastomys natalensis [12] = assay: Filaricidal activity against Brugia malayi in Mastomys at a dosage of 50 mg/kg x 5 administered intraperitoneally at a day of 21; type: functional; conditions: route intraperitoneal
Mastomys natalensis [13] = assay: Filaricidal activity against Brugia malayi in Mastomys at a dosage of 50 mg/kg x 5 administered intraperitoneally at a day of 42; type: functional; conditions: route intraperitoneal
Mastomys natalensis [14] = assay: Filaricidal activity against Brugia malayi in Mastomys at a dosage of 50 mg/kg x 5 administered intraperitoneally at a day of 63; type: functional; conditions: route intraperitoneal
Mastomys natalensis [15] = assay: Filaricidal activity against Brugia malayi in Mastomys at a dosage of 50 mg/kg x 5 administered intraperitoneally at a day of 8; type: functional; conditions: route intraperitoneal
Mastomys natalensis [16] = assay: Filaricidal activity against Brugia malayi in Mastomys at a dosage of 50 mg/kg x 5 administered intraperitoneally at a day of 91; type: functional; conditions: route intraperitoneal
Mastomys natalensis [17] = assay: Filaricidal activity against Dipetalonema viteae in Mastomys at a dosage of 6.25 mg/kg x 5 administered subcutaneous at a day of 42; type: functional
Mastomys natalensis [18] = assay: Filaricidal activity against Dipetalonema viteae in Mastomys at a dosage of 300 mg/kg x 5 administered orally at a day of 21; type: functional; conditions: route oral
Mastomys natalensis [19] = assay: Filaricidal activity against Dipetalonema viteae in Mastomys at a dosage of 300 mg/kg x 5 administered orally at a day of 42; type: functional; conditions: route oral
Mastomys natalensis [20] = assay: Filaricidal activity against Dipetalonema viteae in Mastomys at a dosage of 6.25 mg/kg x 5 administered subcutaneous at a day of 21; type: functional
Mastomys natalensis [21] = assay: Filaricidal activity against Dipetalonema viteae in Mastomys at a dosage of 6.25 mg/kg x 5 administered subcutaneous at a day of 8; type: functional
Mus musculus [22] = assay: Anthelmintic activity against Syphacia obvelata in mice at a dose of 100x1 mg/kg administered perorally; type: functional
Mus musculus [23] = assay: Anthelmintic activity against Syphacia obvelata in mice at a dose of 50x1 mg/kg administered perorally; type: functional
Rattus norvegicus [24] = assay: Anthelmintic activity against Hymenolepis nana in rats at a dose of 400x3 mg/kg administered perorally; type: functional
Rattus norvegicus [25] = assay: Filaricidal activity against Litomosoides carinii in cotton rats at a dosage of 10 mg/kg x 5 administered intraperitoneally at a day of 42; type: functional; conditions: route intraperitoneal
Rattus norvegicus [26] = assay: Filaricidal activity against Litomosoides carinii in cotton rats at a dosage of 300 mg/kg x 5 administered orally at a day of 8; type: functional; conditions: route oral
Rattus norvegicus [27] = assay: Filaricidal activity against Litomosoides carinii in cotton rats at a dosage of 300 mg/kg x 5 administered orally at a day of 21; type: functional; conditions: route oral
Rattus norvegicus [28] = assay: Filaricidal activity against Litomosoides carinii in cotton rats at a dosage of 300 mg/kg x 5 administered orally at a day of 42; type: functional; conditions: route oral
Mastomys natalensis [29] = assay: Filaricidal activity against Brugia malayi in Mastomys at a dosage of 200 mg/kg x 5 administered orally at a day of 21; type: functional; conditions: route oral
Mastomys natalensis [30] = assay: Filaricidal activity against Dipetalonema viteae in Mastomys at a dosage of 300 mg/kg x 5 administered orally at a day of 8; type: functional; conditions: route oral
Litomosoides carinii = assay: Filaricidal activity against Litomosoides carinii in cotton rats at a dosage of 300 mg/kg x 5 administered orally; conditions: route oral
Sigmodon hispidus [31] = assay: Filaricidal activity against Litomosoides carinii in cotton rats at a dosage of 10 mg/kg x 5 administered intraperitoneally at a day of 8; conditions: route intraperitoneal
Sigmodon hispidus [32] = assay: Filaricidal activity against Litomosoides carinii in cotton rats at a dosage of 10 mg/kg x 5 administered intraperitoneally at a day of 21; conditions: route intraperitoneal
Sigmodon hispidus [33] = assay: Filaricidal activity against Litomosoides carinii in cotton rats at a dosage of 10 mg/kg x 5 administered intraperitoneally at a day of 42; conditions: route intraperitoneal

Question: With `COC(=O)Nc1nc2cc(C(=O)c3ccccc3)ccc2[nH]1` [MEBENDAZOLE] as the compound, how does the Worm reduction (Cricetinae gen. sp. [1]) read?
Answer: The Worm reduction was 100%.

Question: And the Animals cured (Cricetinae gen. sp. [2])?
Answer: Its Animals cured is 100%.

Question: What about the Animals cured (Cricetinae gen. sp. [3]) of the same compound?
Answer: Its Animals cured is 37.5%.

Question: And the Worm reduction (Cricetinae gen. sp. [3])?
Answer: Its Worm reduction is 72%.

Question: What about the Death (Mastomys natalensis [4]) of the same compound?
Answer: The Death was 0%.

Question: And the Death (Mastomys natalensis [5])?
Answer: Its Death is 100%.

Question: And the Death (Mastomys natalensis [6])?
Answer: Its Death is 85.4%.

Question: What about the Death (Mastomys natalensis [7]) of the same compound?
Answer: Its Death is 100%.

Question: And the Removal of microfilariae (Mastomys natalensis [8])?
Answer: The Removal of microfilariae was 0%.

Question: And the Removal of microfilariae (Mastomys natalensis [9])?
Answer: Its Removal of microfilariae is 0%.

Question: And the Removal of microfilariae (Mastomys natalensis [10])?
Answer: The Removal of microfilariae was 0%.

Question: And the Removal of microfilariae (Mastomys natalensis [11])?
Answer: Its Removal of microfilariae is 0%.

Question: What about the Removal of microfilariae (Mastomys natalensis [12]) of the same compound?
Answer: The Removal of microfilariae was 65.3%.

Question: And the Removal of microfilariae (Mastomys natalensis [13])?
Answer: The Removal of microfilariae was 100%.

Question: What about the Removal of microfilariae (Mastomys natalensis [14]) of the same compound?
Answer: Its Removal of microfilariae is 100%.

Question: What about the Removal of microfilariae (Mastomys natalensis [15]) of the same compound?
Answer: The Removal of microfilariae was 0%.

Question: And the Removal of microfilariae (Mastomys natalensis [16])?
Answer: Its Removal of microfilariae is 100%.

Question: And the Removal of microfilariae (Mastomys natalensis [17])?
Answer: The Removal of microfilariae was 100%.

Question: What about the Removal of microfilariae (Mastomys natalensis [18]) of the same compound?
Answer: Its Removal of microfilariae is 85.5%.

Question: What about the Removal of microfilariae (Mastomys natalensis [19]) of the same compound?
Answer: Its Removal of microfilariae is 100%.

Question: What about the Removal of microfilariae (Mastomys natalensis [20]) of the same compound?
Answer: Its Removal of microfilariae is 100%.

Question: And the Removal of microfilariae (Mastomys natalensis [21])?
Answer: The Removal of microfilariae was 53.1%.

Question: What about the Animals cured (Mus musculus [22]) of the same compound?
Answer: The Animals cured was 66.6%.

Question: What about the Animals cured (Mus musculus [23]) of the same compound?
Answer: The Animals cured was 0%.

Question: What about the Animals cured (Rattus norvegicus [24]) of the same compound?
Answer: Its Animals cured is 0%.

Question: And the Death (Rattus norvegicus [25])?
Answer: Its Death is 100%.

Question: And the Removal of microfilariae (Rattus norvegicus [26])?
Answer: The Removal of microfilariae was 48.8%.

Question: And the Removal of microfilariae (Rattus norvegicus [27])?
Answer: The Removal of microfilariae was 57.7%.

Question: What about the Removal of microfilariae (Rattus norvegicus [28]) of the same compound?
Answer: Its Removal of microfilariae is 74.3%.

Question: And the Removal of microfilariae (Mastomys natalensis [29])?
Answer: Its Removal of microfilariae is 0%.

Question: And the Removal of microfilariae (Mastomys natalensis [30])?
Answer: Its Removal of microfilariae is 0%.

Question: And the Death (Litomosoides carinii)?
Answer: The Death was 33.8%.

Question: And the Removal of microfilariae (Sigmodon hispidus [31])?
Answer: The Removal of microfilariae was 58.6%.

Question: And the Removal of microfilariae (Sigmodon hispidus [32])?
Answer: The Removal of microfilariae was 96.3%.

Question: And the Removal of microfilariae (Sigmodon hispidus [33])?
Answer: The Removal of microfilariae was 100%.
